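Compound exposure: 48 hours, 5 concentrations, 96-well plates. GI50 marks 50% less growth. TGI: concentration producing complete growth inhibition.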
Experiments:
Assay in all cases: DTP human tumour cell line panel, 48 h
K-562 leukemia = system: K-562 leukemia
RXF 393 renal = system: RXF 393 renal
NCI-H522 lung = system: NCI-H522 lung
NCI-H23 lung = system: NCI-H23 lung
OVCAR-5 ovarian = system: OVCAR-5 ovarian
U251 CNS = system: U251 CNS
SF-268 CNS = system: SF-268 CNS
LOX IMVI melanoma = system: LOX IMVI melanoma
UACC-62 melanoma = system: UACC-62 melanoma
BT-549 breast = system: BT-549 breast

Structure (SMILES)	TGI (K-562 leukemia) [µM]	TGI (RXF 393 renal) [µM]	TGI (NCI-H522 lung) [µM]	TGI (NCI-H23 lung) [µM]	TGI (OVCAR-5 ovarian) [µM]	TGI (U251 CNS) [µM]	TGI (SF-268 CNS) [µM]	TGI (LOX IMVI melanoma) [µM]	TGI (UACC-62 melanoma) [µM]	GI50 (K-562 leukemia) [µM]	GI50 (RXF 393 renal) [µM]	GI50 (OVCAR-5 ovarian) [µM]	GI50 (U251 CNS) [µM]	GI50 (SF-268 CNS) [µM]	GI50 (BT-549 breast) [µM]	TGI (BT-549 breast) [µM]	GI50 (NCI-H522 lung) [µM]	GI50 (NCI-H23 lung) [µM]	GI50 (LOX IMVI melanoma) [µM]
CNC1=C(C)C(=O)C(C)=C(C(C)(C)CC(=O)n2cc(F)c(=O)[nH]c2=O)C1=O	> 100	> 100	> 100	> 100	> 100	> 100	> 100	> 100	> 100	–	–	–	–	–	–	–	–	–	–
O=C(O)c1cn(C2CC2)c2cc(N3CCN(S(=O)(=O)c4ccc(Cl)c(Cl)c4)CC3)c(F)cc2c1=O	> 100	9.51	–	–	> 100	> 100	> 100	–	–	3.92	2.98	4.14	3.33	4.77	2.98	> 100	–	–	–
COc1cc2c(c3oc(-c4ccc5c(c4)OCO5)c(O)c(=O)c13)CCC(C)(C)O2	> 100	–	–	> 100	–	–	–	> 100	> 100	–	–	–	–	–	–	–	–	–	–
C#CCOCn1cnc2ncnc(Cl)c21	> 100	–	> 100	> 100	> 100	> 100	> 100	> 100	> 100	–	–	–	–	–	–	–	–	–	–
COc1cc(C)c(C(=O)/C=C/c2cc(OC)c(O)c(OC)c2)cc1O	> 100	–	39.6	36.4	69.9	44.6	78.4	> 100	44.1	–	–	–	–	–	–	–	–	–	–
COc1cc(C2[C@H]3C(=O)N(c4ccc(Cc5ccc(N6C(=O)[C@@H]7ON(c8ccccc8)C(c8cc(OC)c(OC)c(OC)c8)[C@@H]7C6=O)cc5)cc4)C(=O)[C@H]3ON2c2ccccc2)cc(OC)c1OC (some centres not stated)	> 100	> 100	> 100	> 100	> 100	> 100	> 100	> 100	> 100	–	–	–	–	–	–	–	–	–	–
CSc1nc2c(nc(N)n2C2OCC(O)C(O)C2O)c(=O)[nH]1 (configuration not stated)	> 100	> 100	> 100	> 100	–	> 100	> 100	> 100	> 100	–	–	–	–	–	–	–	–	–	–
CC(=O)Nc1ccc(-c2nnc(SCC(=O)Nc3ccccc3[N+](=O)[O-])o2)cc1	> 100	> 100	> 100	> 100	> 100	> 100	> 100	> 100	> 100	–	–	–	–	–	–	–	–	–	–
COc1ccc(N2CCN(CC(=O)N3CCN(c4nnc(-c5ccccc5)c(-c5ccccc5)n4)CC3)CC2)cc1	> 100	> 61.2	> 73.2	> 100	> 100	> 100	> 100	> 100	–	5.6	7.88	> 100	6.43	9.16	3.47	33	19.1	6.06	11.6
CCCCNC(=S)/N=C/c1c(O)c2ccccc2oc1=O	–	–	–	> 100	> 100	> 100	–	> 100	–	–	–	–	–	–	–	–	–	–	–
O=C1c2cnccc2Cc2cccc3c2N1c1ccccc1S3	> 100	65.3	32.2	52.7	–	34	> 100	57.5	41.7	–	–	–	–	–	–	–	–	–	–
